ChEMBL document CHEMBL1137206, “A nonpeptidic sulfonamide inhibits the p53-mdm2 interaction and activates p53-dependent transcription in mdm2-overexpressing cells” (J Med Chem, 2004)

Molecular target: Tumour suppressor p53/oncoprotein Mdm2 (Homo sapiens, UniProt P04637+Q00987)
Test: In vitro inhibitory concentration against p53-mdm2 interaction
Assay type: protein assay

Tumour suppressor p53/oncoprotein Mdm2, sequence (P04637 whole entry): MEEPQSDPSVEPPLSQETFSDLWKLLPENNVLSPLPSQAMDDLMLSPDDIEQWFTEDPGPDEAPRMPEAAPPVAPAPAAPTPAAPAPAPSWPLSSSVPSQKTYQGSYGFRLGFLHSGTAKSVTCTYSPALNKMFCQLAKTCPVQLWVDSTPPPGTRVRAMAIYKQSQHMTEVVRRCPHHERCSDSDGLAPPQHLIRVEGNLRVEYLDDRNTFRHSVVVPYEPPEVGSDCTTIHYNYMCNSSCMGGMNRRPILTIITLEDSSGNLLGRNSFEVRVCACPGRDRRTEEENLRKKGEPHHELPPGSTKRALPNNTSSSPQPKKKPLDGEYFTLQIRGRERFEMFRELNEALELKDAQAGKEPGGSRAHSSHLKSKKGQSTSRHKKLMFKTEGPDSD
Tumour suppressor p53/oncoprotein Mdm2, sequence (Q00987 whole entry): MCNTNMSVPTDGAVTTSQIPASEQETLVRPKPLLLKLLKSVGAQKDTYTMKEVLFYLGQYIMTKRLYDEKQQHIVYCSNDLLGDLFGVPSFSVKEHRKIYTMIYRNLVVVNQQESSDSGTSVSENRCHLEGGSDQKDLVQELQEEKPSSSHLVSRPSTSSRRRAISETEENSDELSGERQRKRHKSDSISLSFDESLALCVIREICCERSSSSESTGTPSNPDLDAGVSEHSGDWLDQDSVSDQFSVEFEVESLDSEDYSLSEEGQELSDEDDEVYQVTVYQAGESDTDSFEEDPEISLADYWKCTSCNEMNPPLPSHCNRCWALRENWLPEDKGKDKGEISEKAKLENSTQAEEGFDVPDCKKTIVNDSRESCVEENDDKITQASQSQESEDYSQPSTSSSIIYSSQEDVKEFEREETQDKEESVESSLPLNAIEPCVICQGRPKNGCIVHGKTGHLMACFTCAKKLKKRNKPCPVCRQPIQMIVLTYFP

Q: With `CC(C)Oc1ccc(C(=O)NS(=O)(=O)c2ccc(NN=C3C(=O)N(c4ccccc4)N(c4ccccc4)C3=O)cc2)cc1` as the molecule, how does the IC50 read?
A: 31.8 µM
